According to patent publication US20230200390A1, “SELECTIVE HERBICIDES BASED ON SUBSTITUTED ISOXAZOLIN CARBOXAMIDES AND MEFENPYR-DIETHYL” (BAYER AKTIENGESELLSCHAFT, priority 2020, published 2023):

What was measured:
Assay type in all cases: in vivo
[1] = system: spring barley, HORVS Montoya; test: Seed treatment with safener; post-emergence herbicide, crop damage; details: 21 DAT; for HER effect + SAF / Reduction [%] / Reduction [Difference]: mefenpyr-diethyl 0.5 g a.i./kg seed
Text: (§1) For safener seed treatment trials, sufficient seed amounts of the respective crops (spring wheat (TRZAS); spring barley (HORVS)) were weighed into screw cap glass bottles with a minimum volume trice of the seeds.
(§2) As a first step, specified safeners formulated as wettable powder (WP) or wettable granules (WG) were weighed out for the required dosages (g a.i./kg seed), corresponding to the seed amounts. The safener amounts were mixed with a coloured slurry blind formulation type, prediluted with milk at 3.5% fat rate (25 mgs slurry formulation plus 2 ml milk per 10 grams of seed). A tube roller was used for coating. The solutions were gradually pipetted each on the rotating seeds followed by coating for min. 3 hours until all liquid had been soaked up by the seeds. Thereafter, the coated seeds were put flat on open trays for drying over night at room temperature.
(§3) Treated seeds were then placed into pots (7 cm diameter) on the surface of sandy loam, pressed down, flat covered with additional soil and finally covered with sandy soil, also pressed down, watered, and kept under good growth conditions in a greenhouse, until the plants had reached 2-leaf-stage (BBCH 12).
(§4) At that stage, post-emergence application of the specified herbicides was done on:
(§5) a) pot sets containing plants with safener-coated seeds as described above,
(§6) b) as a reference, pot sets of plants without seed treatment.
(§7) The herbicides were formulated as wettable powder (WP). Equivalent to the spray area, compound amounts were weighed out and diluted related to the water application rate (300 l/ha) to an aqueous suspension plus additive (1 l/ha MERO). Dosage related equivalents were conventionally sprayed on trays with the potted plants.
(§8) After application, the test plants were kept under good growth conditions in a greenhouse.
(§9) Assessment timings were 10 and 21 days after treatment (DAT) with the herbicide, by visual scoring of the crop damage in % (comparison of untreated with treated plants, either sprayed only with herbicide or with herbicide on plants with treated seeds).

[2] = system: spring wheat, TRZAS Triso; test: as above; details: for HER effect + SAF [%] (crop damage) / Reduction [%] / Reduction [Difference]: mefenpyr-diethyl 0.5 g a.i./kg seed; for HER effect [%] (crop damage, herbicide without safener): no safener
Text: as §1, §2, §3, §4, §5, §6, §7, §8, §9

[3] = system: spring wheat, TRZAS Triso; test: Tank-mix; post-emergence: crop damage by herbicide with/without safener mefenpyr-diethyl
Method: (§10) Seeds of crops (spring wheat, TRZAS; spring barley, HORVS; maize, ZEAMA) were placed in sandy loam soil in peat pots, covered with soil and cultivated in a greenhouse under good growth conditions. Two to three weeks after sowing, the test plants were treated at the 1 to 3-leaf stage. The herbicide/safener active compound combinations according to the invention, formulated as wettable powders or emulsion concentrates, and, in parallel tests, the correspondingly formulated individual active compounds were sprayed onto the green parts of the plants in various dosages using an amount of water of 300 l/ha (converted).
(§11) The pots were returned under good growing conditions in a glasshouse and a visual assessment of herbicidal effects was made at intervals from 1 to 3 weeks after herbicide application (DAT=days after treatment). Assessment was on a percentage basis in comparison with untreated control plants (0%=no injury, 100%=complete kill).

[4] = system: spring barley, HORVS Montoya; test: as above; details: 21 DAT
Method: as §10, §11

[5] = HER 32 g a.i./ha post-emergence
[6] = herbicide alone 32 g a.i./ha post-emergence
[7] = HER 2 g a.i./ha + mefenpyr-diethyl 50 g a.i./ha, 10 DAT
[8] = HER 8 g a.i./ha + mefenpyr-diethyl 50 g a.i./ha, 10 DAT
[9] = HER 2 g a.i./ha + mefenpyr-diethyl 100 g a.i./ha
[10] = HER 2 g a.i./ha + mefenpyr-diethyl 50 g a.i./ha, 21 DAT
[11] = herbicide alone 2 g a.i./ha, 21 DAT
[12] = herbicide alone 8 g a.i./ha post-emergence
[13] = HER 8 g a.i./ha + mefenpyr-diethyl 50 g a.i./ha, 21 DAT

## CSCCOC(=O)C1C=CC(NC(=O)C2(C(F)(F)F)CC(c3cc(F)cc(F)c3)=NO2)C1 (centres unmarked) [Example 1.7]
[1]; HER 2 g a.i./ha post-emergence
  HER effect + SAF: 40%
  Reduction [%]: 43%
  Reduction [Difference]: 30
[1]; [5]
  HER effect + SAF: 50%
  Reduction [%]: 47%
  Reduction [Difference]: 45
[1]; herbicide alone 2 g a.i./ha post-emergence
  HER effect: 70%
[1]; [6]
  HER effect: 95%
[2]; 10 DAT, HER dose 2 g a.i./ha
  HER effect + SAF [%] (crop damage): 0%
  Reduction [%]: 100%
  Reduction [Difference]: 50
  HER effect [%] (crop damage, herbicide without safener): 50%
[2]; 10 DAT, HER dose 8 g a.i./ha
  HER effect + SAF [%] (crop damage): 40%
  Reduction [%]: 57%
  Reduction [Difference]: 53
  HER effect [%] (crop damage, herbicide without safener): 93%
[3]; [7]
  HER effect + SAF: 0%
  Reduction [%]: 100%
  Reduction [Difference]: 50
[3]; [8]
  HER effect + SAF: 70%
  Reduction [%]: 25%
  Reduction [Difference]: 23
[3]; herbicide alone 2 g a.i./ha, 10 DAT
  HER effect: 50%
[3]; herbicide alone 8 g a.i./ha, 10 DAT
  HER effect: 93%

## C=CC1(C(=O)NC2C=CC(C(=O)OC)C2)CC(c2cc(F)cc(F)c2)=NO1 (centres unmarked) [Example 1.26]
[2]; 21 DAT, HER dose 2 g a.i./ha
  HER effect + SAF [%] (crop damage): 30%
  Reduction [%]: 67%
  Reduction [Difference]: 60
  HER effect [%] (crop damage, herbicide without safener): 90%
[2]; 21 DAT, HER dose 8 g a.i./ha
  HER effect + SAF [%] (crop damage): 70%
  Reduction [%]: 25%
  Reduction [Difference]: 23
  HER effect [%] (crop damage, herbicide without safener): 93%
[4]; [9]
  HER effect + SAF: 0%
  Reduction [%]: 100%
  Reduction [Difference]: 60
[4]; herbicide alone 2 g a.i./ha
  HER effect: 60%
[3]; [10]
  HER effect + SAF: 50%
  Reduction [%]: 44%
  Reduction [Difference]: 40
[3]; [11]
  HER effect: 90%

## COC(=O)C1C=CC(NC(=O)C2(C)CC(c3cc(Cl)cc(C#N)c3)=NO2)C1 (mixture of isomers) [Example 1.23]
[1]; HER 8 g a.i./ha post-emergence
  HER effect + SAF: 0%
  Reduction [%]: 100%
  Reduction [Difference]: 20
[1]; [5]
  HER effect + SAF: 10%
  Reduction [%]: 67%
  Reduction [Difference]: 20
[1]; [12]
  HER effect: 20%
[1]; [6]
  HER effect: 30%
[2]; 21 DAT, HER dose 8 g a.i./ha
  HER effect + SAF [%] (crop damage): 0%
  Reduction [%]: 100%
  Reduction [Difference]: 20
  HER effect [%] (crop damage, herbicide without safener): 20%

## C=CC1(C(=O)NC2C=CC(C(=O)O)C2)CC(c2cc(F)cc(F)c2)=NO1 (centres unmarked) [Example 1.58]
[1]; HER 8 g a.i./ha post-emergence
  HER effect + SAF: 0%
  Reduction [%]: 100%
  Reduction [Difference]: 95
[1]; [5]
  HER effect + SAF: 40%
  Reduction [%]: 58%
  Reduction [Difference]: 55
[1]; [12]
  HER effect: 95%
[1]; [6]
  HER effect: 95%
[2]; 21 DAT, HER dose 2 g a.i./ha
  HER effect + SAF [%] (crop damage): 0%
  Reduction [%]: 100%
  Reduction [Difference]: 85
  HER effect [%] (crop damage, herbicide without safener): 85%
[2]; 21 DAT, HER dose 8 g a.i./ha
  HER effect + SAF [%] (crop damage): 0%
  Reduction [%]: 100%
  Reduction [Difference]: 93
  HER effect [%] (crop damage, herbicide without safener): 93%
[2]; 21 DAT, HER dose 32 g a.i./ha
  HER effect + SAF [%] (crop damage): 10%
  Reduction [%]: 89%
  Reduction [Difference]: 83
  HER effect [%] (crop damage, herbicide without safener): 93%
[3]; [10]
  HER effect + SAF: 10%
  Reduction [%]: 88%
  Reduction [Difference]: 75
[3]; [13]
  HER effect + SAF: 40%
  Reduction [%]: 57%
  Reduction [Difference]: 53
[3]; [11]
  HER effect: 85%
[3]; herbicide alone 8 g a.i./ha, 21 DAT
  HER effect: 93%
